Source: patent publication US8637455B2, “Compositions and methods for delivery of glycopeptide antibiotics to medical device surfaces” (Affinergy, LLC, priority 2007, dated 2014)
*1 amine or outer side, *2 acyl side, *3 side chain or, on linkers, in order; H or OH if unused. Bridges are numbered along the chain shown (N, C = ends). Where no end group is shown, it is not given here. [ ]: non-standard residue; d: D form. The star is where a group is joined. (miniPEG)2 = linker of two mini-PEG units, (HN—CH2—CH2—O—CH2—CH2—O—CH2—C═O)2, O=C(COCCOCCN[*:1])NCCOCCOCC(=O)[*:2]; Myristoyl = CCCCCCCCCCCCCC(=O)*; Aun = NCCCCCCCCCCC(=O)O; AEEA = NCCOCCOCC(=O)O; Ahx = NCCCCCC(=O)O

Legend:
[1] = Binding of alkaline-phosphatase linked peptides to immobilized biotinylated vancomycin; details: absorbance at 405 nm
Text: From the peptide amino acid sequence […] (SEQ ID NO: 1) additional peptides were designed and expressed in the bacterial expression system described herein to further evaluate structure-function relationships. A truncated peptide comprising the amino acid sequence of SEQ ID NO:9 (STCLIDMYGVCH) was expressed and compared to a peptide comprising SEQ ID NO:1 for binding affinity for glycopeptide antibiotic. Also produced were a dimer of this truncated peptide (SEQ ID NO:10; […]), a D to A substitution (SEQ ID NO:11; STCLIAMYGVCH), a D to E substitution (SEQ ID NO:12; STCLIEMYGVCH), and a G to S substitution (SEQ ID NO:13; STCLIDMYSVCH). Relative binding strengths of these peptides and of other representative peptides to glycopeptide antibiotic were determined by EC50 values for binding to vancomycin or other glycopeptide antibiotic.
A typical binding assay for glycopeptide antibiotic was performed according to the following procedure. The concentrations of the alkaline-phosphatase linked variant peptides were normalized to equal levels based on the alkaline-phosphatase activity as determined in a kinetic assay with the alkaline-phosphatase specific chromogenic substrate p-nitrophenyl phosphate (p-NPP). A streptavidin coated microtiter plate was coated with biotinylated vancomycin. Serial dilutions of normalized alkaline-phosphatase linked peptides were allowed to bind to the immobilized vancomycin and detected by addition of the alkaline-phosphatase specific chromogenic substrate p-NPP. Relative affinity for peptide binding to the immobilized vancomycin was determined by measuring the absorbance at 405 nm of the colored product of the alkaline phosphatase reaction. […] EC50 values for the synthetic peptides binding to vancomycin were determined as described in Example 1 and are shown in Table 3. Preferred are peptides that bind to glycopeptide antibiotic with binding affinity of EC50 of less than or equal to about 1 μM, and more preferably, in the nanomolar range (e.g., <0.1 μM).

[2] = tested on: Staphylococcus aureus strain MZ100; experiment: In vitro infection assay on titanium beads, colony counts; format: cell-based; details: peptide 5 μM + vancomycin 100 μM
Protocol: To illustrate the antibacterial activity of the peptide compositions, an in vitro infection assay was performed. Briefly, a surface material was contacted with one of the peptide compositions such that the peptide binds to the surface material. The peptide composition can have glycopeptide antibiotic already bound thereto at the time of contacting the peptide with the surface material, or the glycopeptide antibiotic can be contacted with the peptide in a step subsequent to binding the peptide composition to the surface material. The surface material was washed to remove unbound glycopeptide antibiotic, and then contacted with bacterial cells (added from a culture in log phase growth) and incubated to promote bacterial growth. The surface material was washed, and any bacterial cells colonizing the surface material removed and plated to assess bacterial growth.
In one example, Staphylococcus aureus strain MZ100 was used as the representative bacterial cells. First, as a representative surface material, titanium beads were sterilized in acetone in a sonication bath, and then air dried in a sterile hood. The beads were individually placed in sterilized microfuge tubes (one bead per tube). […] The next day, the plates were examined for bacterial growth, and the number of bacterial colonies was quantified per plate.

[3] = Vancomycin loading on titanium surface by peptide compositions (HPLC assay); format: binding; details: peptide at 10 μM; vancomycin 200 μM; titanium beads; 30 minutes, 4 washes
Protocol: In one experiment, titanium beads were placed into wells of a 96 well plate. To each well was added a range of concentrations (1-50 μM) of peptide composition comprising at least one surface-binding peptide coupled to at least one glycopeptide antibiotic binding peptide and vancomycin at 200 μM. The appropriate negative controls were also included. The plate was incubated for 30 minutes, and then the wells and beads were washed 4 times with buffer. After washing, 10 mM HCl was added to each well to elute remaining vancomycin from the metal bead. Bound vancomycin was measured by HPLC assay at detection wavelength 214 nm. […] In addition, binding assays performed using stainless steel rather than titanium beads as a representative surface material yielded similar results.

[4] = tested on: S. aureus; experiment: Bacterial growth with loaded titanium beads, optical density at 600 nm; format: cell-based; details: peptide 10 μM + vancomycin 200 μM, 37° C. for 18 hours
Protocol: In another experiment, antimicrobial activity of the peptide compositions was measured as follows. Titanium beads were placed into wells of a 96 well plate. To each well was added a 10 μM of peptide composition comprising at least one surface-binding peptide coupled to at least one glycopeptide antibiotic binding peptide and vancomycin at 200 μM. The appropriate negative controls were also included. The plate was incubated for 1 hour at 20° C., and then the wells and beads were washed 4 times with buffer. After washing, the beads were transferred to the well of a plate containing S. aureus in log phase growth and incubated at 37° C. for 18 hours. Bacterial growth was assessed by reading optical density at 600 nm.

[5] = tested on: S. aureus MZ100; experiment: In vitro infection model on titanium pins, colony counts; format: cell-based; details: composition 5 μM + vancomycin 100 μM, two hours with S. aureus MZ100
Protocol: Acetone-sterilized titanium pins (1 mm diameter, 12 mm long) were first washed in PBS. These pins were then incubated in a solution (PBS) containing the respective composition (5 μM)+vancomycin (100 μM) for 15 minutes at room temperature, with intermittent inversion for coating. Each pin was then washed extensively in PBS and placed in 30 μL of S. aureus MZ100 cultured at 10^6 colony forming units (cfu) per mL, according to methods above. The coated pins were then inoculated in 30 mm lengths of 1.5 mm diameter silicone tubing, with closed ends. After incubation for two hours with shaking, the pin was placed in a new tube containing 1 mL PBS. After inverting several times, PBS was aspirated, and replaced with a fresh 1 mL of PBS. The pins were then sonicated at 20 kHz for four cycles of 15 seconds each. Supernatants (100 μL) and dilutions were plated on trypticase soy agar (TSA) plates, incubated for 24 hours at 37° C., and colonies were counted. An assay control included the same steps of the infection model, except that the pin is uncoated pin (i.e., without composition according to the presently disclosed subject matter bound thereto) (“Control”). As representative examples, compositions comprising the amino acid sequences of SEQ ID NOs: 125 and 126 were tested for antimicrobial activity using the in vitro infection model (see, Table 7, “A” & “B”, respectively).

[6] = Binding assay of peptide for gentamycin; details: gentamycin (an aminoglycoside antibiotic); similar assay format as for vancomycin
Protocol: Using a similar binding assay format as described herein for vancomycin, the ability of a peptide comprising the amino acid sequence of SEQ ID NO: 1 to bind gentamycin (an aminoglycoside antibiotic) was determined.

[7] = tested on: binding between vancomycin and a peptide comprising the amino acid sequence of SEQ ID NO:1; experiment: Inhibition by Lys-D-Ala-D-Ala of specific binding between vancomycin and peptide SEQ ID NO:1
Protocol: As an example, illustrated is the inhibition by Lys-D-Ala-D-Ala of specific binding between vancomycin and a peptide comprising the amino acid sequence of SEQ ID NO:1. To the wells of a 96 well plate coated with streptavidin was added 100 μl of a 0.2 μM solution of biotinylated peptide in buffer-T. After incubation, the wells were blocked by adding 200 μl of a 0.5 mM solution of biotin in buffer-T. The plates were then washed three times with buffer-T. Serial dilutions of Lys-D-Ala-D-Ala were prepared, and added individually to the wells such that Lys-D-Ala-D-Ala ranged in a final concentration of from about 1 μM to about 200 μM (in a volume of 35 μl). Also added to each well was 35 μl of biotinylated vancomycin (20 nM final concentration), and the plate was incubated at 30 minutes for room temperature. The wells were then washed three times with buffer-T, followed by the addition of 100 μl of streptavidin-alkaline phosphatase conjugate (1 mg/ml diluted 1:500 in buffer-T). Following a 30 minute incubation, the wells were washed five times with buffer-T. Added to each well was 100 μl of pNPP, followed by colorimetric detection after 12 minutes at an absorbance of 405 nm.

## 11 (STCLIAMYGVCH) [compound 11]
[1]
  glycopeptide antibiotic binding: no detectable glycopeptide antibiotic binding

## 12 (STCLIEMYGVCH) [compound 12]
[1]
  glycopeptide antibiotic binding: no detectable glycopeptide antibiotic binding

## 13 (STCLIDMYSVCH) [compound 13]
[1]
  glycopeptide antibiotic binding: no detectable glycopeptide antibiotic binding

## 119 (NHTISKNHKKKNKNSNKTR) [compound 119]
[2]
  bacterial growth on the plates: completely inhibited

## 130 (SSCLIDIYGVCHNFDAY[AEEA][AEEA]HKKNNPKKKNKTRGSSK; disulfide 3-11 (inferred)) [compound 130]
[3]
  Picomoles vancomycin/cm^2: 83 Picomoles vancomycin/cm^2
[4]
  inhibition of bacterial growth: complete inhibition

## 131 (SSCLIDIYGVCHNFDAY[AEEA][AEEA]SSHRTNHKKNNPKKKNKTRGSSGK; disulfide 3-11 (inferred)) [compound 131]
[3]
  Picomoles vancomycin/cm^2: 76 Picomoles vancomycin/cm^2
[4]
  inhibition of bacterial growth: complete inhibition

## AUD-AUD-AUD-SSCLIDIYGVCHNFDAY-(miniPEG)2-HKKNNPKKKNKTRGSSK ([Aun][Aun][Aun]SSCLIDIYGVCHNFDAY[(miniPEG)2]HKKNNPKKKNKTRGSSK; disulfide 6-14 (inferred)) [SEQ ID NO: 126]
[5]
  # of bacterial colonies (CFU): <10 CFU

## CLIDMYGVCHNFDGAYDS [compound 1]
[6]
  binding affinity for gentamycin: lacked significant binding affinity

## Lys-D-Ala-D-Ala
[7]; Lys-D-Ala-D-Ala between 100 μM to 200 μM
  inhibition of binding between vancomycin and peptide: ~100%
[7]; biotinylated vancomycin 20 nM, immobilized peptide SEQ ID NO:1, read-out: concentration of Lys-D-Ala-D-Ala needed to inhibit about 50% of the binding between vancomycin and peptide
  IC50: ~10 µM

## Myr-Ahx-SSCLIDIYGVCHNFDAY-(miniPEG)2-HKKNNPKKKNKTRGSSK ({Myristoyl-Ahx}-SSCLIDIYGVCHNFDAY[(miniPEG)2]HKKNNPKKKNKTRGSSK; disulfide 3-11 (inferred)) [SEQ ID NO: 125]
[5]
  # of bacterial colonies (CFU): 100 CFU

## NHTISKNHKKKNKNSNKTR [SEQ ID NO: 119]
[2]; 2 hour incubation with MZ100
  # of bacterial colonies: 0

## STCLIDMYGVCH [compound 9]
[1]
  glycopeptide antibiotic binding: displayed glycopeptide antibiotic binding

## STCLIDMYGVCHSSCLIDMYGVCH [compound 10]
[1]
  glycopeptide antibiotic binding: displayed glycopeptide antibiotic binding
